According to PMC8452690, “Structural basis for small molecule targeting of Doublecortin Like Kinase 1 with DCLK1-IN-1” (Communications Biology, 2021):

Experiments:
DCLK1-FL1Δ D511N = target: T1, DCLK1-FL1Δ D511N (Homo sapiens, UniProt O15075, D511N); assay: Thermal shift stability assay, DCLK1-FL1Δ D511N; assay type: binding; settings: D511N mutant, 2.5-40 μM
T1 construct: DCLK1-FL1Δ (residues 50-686); 8XHis tag with TEV protease cleavage site (N); made in house; host or cells: Escherichia coli C41(DE3)
Procedure: DCLK1 proteins were diluted in 150 mM NaCl, 20 mM Tris pH 8.0, 1 mM DTT to […] final concentration and assayed with the appropriate concentration of inhibitor in a total reaction volume of 25 μL. SYPRO Orange (Molecular Probes) was used as a fluorescence probe and detected at 530 nm. The data shown are representative of two independent experiments.

[1] = target: T2, DCLK1-FL1Δ D511N tubulin polymerisation (MAP function) (Homo sapiens, UniProt O15075, D511N); assay: Tubulin polymerisation and pelleting assay with DCLK1-FL1Δ D511N; assay type: biochemical
T2 construct: DCLK1-FL1Δ (residues 50-686); 8XHis tag with TEV protease cleavage site (N); made in house; host or cells: Escherichia coli C41(DE3)
T2 sequence (O15075 50-686 isoform O15075-2 D511N): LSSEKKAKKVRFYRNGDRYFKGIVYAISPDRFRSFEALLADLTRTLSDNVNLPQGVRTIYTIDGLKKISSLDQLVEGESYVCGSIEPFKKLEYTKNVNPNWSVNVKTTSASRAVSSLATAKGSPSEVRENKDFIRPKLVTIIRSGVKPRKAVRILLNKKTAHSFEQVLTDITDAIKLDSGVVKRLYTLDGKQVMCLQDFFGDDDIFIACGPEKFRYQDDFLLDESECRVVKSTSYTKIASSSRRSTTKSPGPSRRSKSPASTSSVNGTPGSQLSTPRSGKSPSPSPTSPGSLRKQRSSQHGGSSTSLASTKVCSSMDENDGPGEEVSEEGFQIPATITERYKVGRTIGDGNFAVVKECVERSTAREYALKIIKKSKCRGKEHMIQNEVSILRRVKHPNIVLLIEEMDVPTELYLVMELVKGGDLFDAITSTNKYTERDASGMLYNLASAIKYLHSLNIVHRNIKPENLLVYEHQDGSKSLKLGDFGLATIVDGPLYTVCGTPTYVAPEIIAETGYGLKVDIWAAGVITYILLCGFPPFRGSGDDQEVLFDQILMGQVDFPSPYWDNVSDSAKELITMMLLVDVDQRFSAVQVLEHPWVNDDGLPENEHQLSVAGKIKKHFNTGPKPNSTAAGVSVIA
Procedure: (§1) Tubulin polymerisation assays were performed in buffer containing 80 mM PIPES at pH 6.9, 2.0 mM MgCl2, 0.5 mM EGTA, 2.5 mM β,γ-Methyleneguanosine 5’-triphosphate, and 10 μM tubulin and 5 μM DCLK1 for 1 h at 37 °C. For tubulin polymerisation in the presence of inhibitors, various concentrations of the inhibitors were first incubated with DCLK1 and allowed to stand on ice for 5 min before adding this mix to the tubulin polymerisation reaction. Following the tubulin polymerisation, the reaction mix was pelleted at 20,000 g for 20 min and the supernatant and the pellet fractions were run on a 12% SDS gel. The data shown are representative of two independent experiments.

[2] = target: T2, DCLK1-FL1Δ D511N tubulin polymerisation (MAP function); assay: Fluorescence-based Tubulin Polymerisation Assay with DCLK1-FL1Δ D511N; assay type: biochemical; settings: 20 μM or 40 μM, fluorescence (Fig. 5e)
Procedure: (§2) Tubulin polymerisation assay were performed using the Microtubule Polymerisation/Depolymerisation Fluorescence Kit (Cytoskeleton #BK011P) in accordance with the manufacturer’s instructions. DCLK1 (4 μΜ) was added to 50 μL tubulin reaction mix containing Buffer 1 (80 mM PIPES at pH 6.9, 2.0 mM MgCl2, 0.5 mM EGTA, 10 μM fluorescent reporter), guanosine triphosphate stock solution at 100 mM, and tubulin (10 mg/ml) stock solution, as described by the manufacturer. Paclitaxel, a control of tubulin polymerisation, was tested at 3 μM, and Νocodazole, a tubulin polymerisation inhibitor, was tested at 80 μΜ. DCLK1-IN-1 was tested at 20 and 40 μΜ with buffer alone as controls. Polymerisation leads to fluorescence enhancement due to incorporation of a fluorescence reporter into polymerising microtubules and was measured by excitation at 355 nm and emission at 460 nm. Readings were taken every 20 s on EnVision Multimode Plate Reader. Each condition was tested in duplicate with two independent batches of protein.

tubulin = assay: Tubulin polymerisation in the absence of DCLK1 (pelleting and fluorescence assays); assay type: biochemical; settings: absence of DCLK1-FL1Δ D511N
Procedure: as §1
as §2, with “Paclitaxel, a control of tubulin polymerisation, was tested at 3 μM, and Νocodazole, a tubulin polymerisation inhibitor, was tested at 80 μΜ. DCLK1-IN-1 was tested at 20 and 40 μΜ with buffer alone as controls.” left out, “Each condition was tested in duplicate with two independent batches of protein.” left out

melting temperature change versus control compound DCLK1-NEG (DCLK1-FL1Δ D511N): increased | effect on DCLK1-FL1Δ D511N ability to polymerise tubulin ([1]; 20 μM or 40 μM, pelleting / SDS-PAGE (Fig. 5d)): did not impact | aggregation and pelleting of DCLK1-FL1Δ D511N upon centrifugation ([1]; 40 μM, without tubulin polymerisation (Fig. 5d lanes 12, 13)): does not cause | effect on DCLK1-FL1Δ D511N ability to polymerise tubulin [2]: did not impact
SMILES: COc1cc(N2CCN(C)CC2)ccc1Nc1ncc2c(n1)N(C)c1ccccc1C(=O)N2CC(F)(F)F [DCLK1-IN-1]
tubulin polymerisation and stabilisation by compound alone (tubulin): does not promote tubulin polymerisaton and stabilisation
